The results in this text go back to patent publication US11685732B2, “MYST family histone acetyltransferase inhibitors” (Epizyme, Inc., priority 2017, dated 2023).

One assay deals with KAT-6A (Homo sapiens (Human), UniProt Q92794). Kind of assay: KAT-6A biochemical inhibition assay (SAMDI mass spectrometry). The essentials:
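IC50 values came from SAMDI time-of-flight mass spectrometry after formic acid quench (0.5% final). Acetylation ran 90 min at 25 °C with 1 μM acetyl coenzyme A and 1 μM peptide substrate, following compound pre-incubation with 12.5 nM KAT-6A in Tris buffer pH 8.0 containing DTT, 2% DMSO final.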

For another assay, the target named is KAT-7 (Homo sapiens (Human), UniProt O95251). In words: KAT-7 biochemical inhibition assay (SAMDI mass spectrometry). The method in brief:
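Read-out was SAMDI time-of-flight MS of formic acid-quenched reactions (0.5% final). Compound dilutions (2% DMSO final) were pre-incubated with 6 nM KAT-7 in 50 mM Tris pH 8.0 with 1 mM DTT, then given 1 μM peptide substrate and 2 μM acetyl-CoA for 120 min at 25 °C. IC50 values were derived.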

Another assay addresses KAT-8 (Homo sapiens (Human), UniProt Q9H7Z6). Kind of assay: KAT-8 biochemical inhibition assay (SAMDI mass spectrometry). The essentials:
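Acetylation of 1 μM peptide substrate with 5 μM acetyl-CoA by 12.5 nM enzyme, compound pre-incubated, 2% DMSO, Tris pH 8.0 buffer with DTT, 25 °C for 90 min. Quench with 0.5% formic acid; product read by SAMDI mass spectrometry to give IC50.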

In a further assay the target is KAT-5 (Homo sapiens (Human), UniProt Q92993). In words: KAT-5 biochemical inhibition assay (SAMDI mass spectrometry). The essentials:
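Acetylation of 1 μM peptide by 9 nM enzyme with 0.5 μM acetyl-CoA (final) was run 90 min at 25° C in Tris pH 8.0 buffer with DTT, after compound preincubation at 2% DMSO. Formic acid stopped the reaction, and product was quantified by SAMDI mass spectrometry to derive IC50.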

pIC50: −log10 of the molar value. Bounds are passed on as bounds.

Sequence of KAT-7 (O95251 other isoform, or with tags, fused parts or gaps): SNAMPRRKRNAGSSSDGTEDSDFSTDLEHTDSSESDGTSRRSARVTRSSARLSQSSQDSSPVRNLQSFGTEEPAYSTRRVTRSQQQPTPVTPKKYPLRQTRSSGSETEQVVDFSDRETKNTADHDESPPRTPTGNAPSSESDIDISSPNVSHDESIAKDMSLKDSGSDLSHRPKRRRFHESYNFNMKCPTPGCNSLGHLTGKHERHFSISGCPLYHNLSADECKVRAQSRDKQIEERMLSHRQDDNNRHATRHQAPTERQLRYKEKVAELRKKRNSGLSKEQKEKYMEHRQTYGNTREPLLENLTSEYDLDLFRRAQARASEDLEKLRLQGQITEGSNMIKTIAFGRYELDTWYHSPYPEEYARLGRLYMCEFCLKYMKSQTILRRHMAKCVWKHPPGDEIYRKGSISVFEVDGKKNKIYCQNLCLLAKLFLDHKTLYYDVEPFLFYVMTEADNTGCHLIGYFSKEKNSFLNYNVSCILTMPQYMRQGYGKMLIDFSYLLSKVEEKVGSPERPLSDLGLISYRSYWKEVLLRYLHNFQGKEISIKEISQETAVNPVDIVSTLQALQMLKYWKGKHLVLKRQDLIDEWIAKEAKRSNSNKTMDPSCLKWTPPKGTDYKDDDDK
Sequence of KAT-6A (Q92794 other isoform, or with tags, fused parts or gaps): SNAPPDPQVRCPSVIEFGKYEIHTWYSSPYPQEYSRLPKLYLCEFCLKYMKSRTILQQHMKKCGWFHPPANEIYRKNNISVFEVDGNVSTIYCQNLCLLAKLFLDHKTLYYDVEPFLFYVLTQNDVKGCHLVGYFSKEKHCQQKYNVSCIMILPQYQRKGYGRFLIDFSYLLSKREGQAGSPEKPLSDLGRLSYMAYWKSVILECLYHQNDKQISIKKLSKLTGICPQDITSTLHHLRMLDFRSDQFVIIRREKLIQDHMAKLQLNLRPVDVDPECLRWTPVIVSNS
Sequence of KAT-5 (Q92993 other isoform, or with tags, fused parts or gaps): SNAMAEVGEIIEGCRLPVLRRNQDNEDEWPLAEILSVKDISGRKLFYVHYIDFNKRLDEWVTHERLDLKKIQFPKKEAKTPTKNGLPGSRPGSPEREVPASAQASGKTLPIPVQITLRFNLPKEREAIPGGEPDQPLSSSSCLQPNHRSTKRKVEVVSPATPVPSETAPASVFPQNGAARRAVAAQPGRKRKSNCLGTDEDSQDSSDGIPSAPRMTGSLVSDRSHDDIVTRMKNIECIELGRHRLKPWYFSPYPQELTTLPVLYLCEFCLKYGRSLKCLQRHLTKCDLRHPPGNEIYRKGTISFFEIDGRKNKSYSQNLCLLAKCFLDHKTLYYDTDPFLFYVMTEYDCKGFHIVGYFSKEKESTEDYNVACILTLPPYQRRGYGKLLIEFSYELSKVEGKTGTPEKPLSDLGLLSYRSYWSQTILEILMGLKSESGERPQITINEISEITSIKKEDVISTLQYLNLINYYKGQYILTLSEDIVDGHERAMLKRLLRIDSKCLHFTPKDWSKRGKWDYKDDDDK
Sequence of KAT-8 (Q9H7Z6 other isoform, or with tags, fused parts or gaps): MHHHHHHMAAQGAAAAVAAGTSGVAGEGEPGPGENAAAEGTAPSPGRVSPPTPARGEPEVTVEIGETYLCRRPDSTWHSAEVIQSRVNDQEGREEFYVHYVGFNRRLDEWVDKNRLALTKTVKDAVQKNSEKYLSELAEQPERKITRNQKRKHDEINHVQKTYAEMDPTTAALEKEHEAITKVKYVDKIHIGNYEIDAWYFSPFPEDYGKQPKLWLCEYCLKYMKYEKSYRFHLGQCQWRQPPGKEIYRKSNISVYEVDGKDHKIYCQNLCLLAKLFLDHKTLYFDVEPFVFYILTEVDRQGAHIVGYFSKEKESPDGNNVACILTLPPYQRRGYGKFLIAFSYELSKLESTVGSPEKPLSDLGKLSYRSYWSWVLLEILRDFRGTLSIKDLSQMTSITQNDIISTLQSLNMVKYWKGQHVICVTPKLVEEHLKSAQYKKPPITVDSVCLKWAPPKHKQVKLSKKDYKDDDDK

By pIC50 is commonly meant the negative decadic logarithm of the IC50, by convention in mol/L. Read a low pIC50 as a large IC50. On to `CCNC(=O)N[C@H]1CCC[C@H](CS(=O)(=O)NNC(=O)c2cc(-c3cn(C)cn3)cc(Cl)c2F)C1` [Compound I-348], for which the pIC50 on KAT-6A is > 5.00; on KAT-7 it was > 5.00; on KAT-8, 4.30 to 5.00; against KAT-5, > 5.00.

For `Cn1cnc(-c2cc(Cl)c(F)c(C(=O)NNS(=O)(=O)C[C@H]3CCC[C@H](N)C3)c2)c1` [Compound I-349], the pIC50 on KAT-6A is 4.30 to 5.00; at KAT-7 it was > 5.00; against KAT-8, 4.30 to 5.00; on KAT-5 it was 4.30 to 5.00.

Turning to `Cn1cnc(-c2cc(Cl)c(F)c(C(=O)NNS(=O)(=O)C[C@H]3CCC[C@H](NC(=O)OC(C)(C)C)C3)c2)c1` [Compound I-350], the negative logarithm of the IC50 (pIC50) was > 5.00 at KAT-6A, > 5.00 at KAT-7, 4.30 to 5.00 against KAT-8 and > 5.00 at KAT-5.

Take `Cn1cnc(-c2cc(Cl)c(F)c(C(=O)NNS(=O)(=O)C[C@@H]3CCC[C@@H](N)C3)c2)c1` [Compound I-351]: the pIC50 at KAT-6A, against KAT-7, on KAT-8 and against KAT-5 was 4.30 to 5.00 in each case.

`CCNC(=O)N1CCC(C)C(CS(=O)(=O)NNC(=O)c2cc(-c3cn(C)cn3)cc(Cl)c2F)C1` (stereo not drawn) [Compound I-352]: the pIC50 is 4.30 to 5.00 against KAT-6A, > 5.00 against KAT-7, 4.30 to 5.00 against KAT-8 and > 5.00 against KAT-5.

For `CO[C@H]1CC[C@@H](CS(=O)(=O)NNC(=O)c2cc(-c3cn(C)cn3)cc(Cl)c2F)CC1` [Compound I-353], the pIC50 on KAT-6A was > 5.00; against KAT-7 it was > 5.00; at KAT-8 it was 4.30 to 5.00; against KAT-5, > 5.00.

As to `Cn1cnc(-c2cc(Cl)c(F)c(C(=O)NNS(=O)(=O)c3ccc(OCc4ccccc4)nc3)c2)c1` [Compound I-354], the pIC50 against KAT-6A was 4.30 to 5.00; against KAT-7, > 5.00; against KAT-8, 4.30 to 5.00; against KAT-5 it was > 5.00.

In the case of `CCNC(=O)N[C@@H]1CCC[C@@H](CS(=O)(=O)NNC(=O)c2cc(-c3cn(C)cn3)cc(Cl)c2F)C1` [Compound I-355], the pIC50 is > 5.00 against KAT-6A, > 5.00 on KAT-7, 4.30 to 5.00 against KAT-8 and > 5.00 at KAT-5.

As for `CCO[C@@H]1CCC[C@H](CS(=O)(=O)NNC(=O)c2cc(-c3cn(C)cn3)cc(Cl)c2F)C1` [Compound I-356], the pIC50 against KAT-6A was 4.30 to 5.00; on KAT-7, > 5.00; at KAT-8, 4.30 to 5.00; against KAT-5, > 5.00.

Consider `CCO[C@H]1CCC[C@H](CS(=O)(=O)NNC(=O)c2cc(-c3cn(C)cn3)cc(Cl)c2F)C1` [Compound I-357], for which the pIC50 at KAT-6A is > 5.00; at KAT-7 it was > 5.00; on KAT-8 it was 4.30 to 5.00; against KAT-5, > 5.00.

Consider `Cn1cnc(-c2cc(Cl)c(F)c(C(=O)NNS(=O)(=O)CC3(F)CCCCC3)c2)c1` [Compound I-358], for which the pIC50 against KAT-6A is > 5.00; on KAT-7 it was > 5.00; at KAT-8, 4.30 to 5.00; on KAT-5 it was > 5.00.

With `COc1ccc(CN(C)C(=O)NC2CCC(CS(=O)(=O)NNC(=O)c3cc(-c4cn(C)cn4)cc(Cl)c3F)C2)cc1` (stereo not drawn) [Compound I-359], the pIC50 at KAT-6A was > 5.00; against KAT-7, > 5.00; on KAT-8, 4.30 to 5.00; against KAT-5, > 5.00.

For the compound `CNC(=O)NC1CCC(CS(=O)(=O)NNC(=O)c2cc(-c3cn(C)cn3)cc(Cl)c2F)C1` (stereo not drawn) [Compound I-360], the negative logarithm of the IC50 (pIC50) was > 5.00 against KAT-6A, > 5.00 against KAT-7, 4.30 to 5.00 at KAT-8 and > 5.00 against KAT-5.

With `Cn1cnc(-c2cc(Cl)c(F)c(C(=O)NNS(=O)(=O)c3cnn(CCOCc4ccccc4)c3)c2)c1` [Compound I-361], the pIC50 on KAT-6A is 4.30 to 5.00; against KAT-7 it was > 5.00; against KAT-8, 4.30 to 5.00; against KAT-5 it was 4.30 to 5.00.

Regarding `Cn1cnc(-c2cc(Cl)c(F)c(C(=O)NNS(=O)(=O)c3cnn(CCO)c3)c2)c1` [Compound I-362], the pIC50 was 4.30 to 5.00 at KAT-6A, > 5.00 at KAT-7, 4.30 to 5.00 on KAT-8 and 4.30 to 5.00 against KAT-5.

For `CCNC(=O)N(C)[C@H]1CC[C@@H](CS(=O)(=O)NNC(=O)c2cc(-c3cn(C)cn3)cc(Cl)c2F)CC1` [Compound I-363], the negative-log IC50 (pIC50) at KAT-6A is 4.30 to 5.00; on KAT-7, > 5.00; at KAT-8 it was 4.30 to 5.00; at KAT-5 it was > 5.00.

Turning to `CN[C@H]1CC[C@@H](CS(=O)(=O)NNC(=O)c2cc(-c3cn(C)cn3)cc(Cl)c2F)CC1` [Compound I-364], the pIC50 was 4.30 to 5.00 against KAT-6A, > 5.00 at KAT-7, 4.30 to 5.00 on KAT-8 and 4.30 to 5.00 against KAT-5.

As to `CN(C)C(=O)N(C)[C@H]1CC[C@@H](CS(=O)(=O)NNC(=O)c2cc(-c3cn(C)cn3)cc(Cl)c2F)CC1` [Compound I-365], the pIC50 was > 5.00 against KAT-6A, > 5.00 at KAT-7, 4.30 to 5.00 against KAT-8 and > 5.00 against KAT-5.

Turning to `CN(C)C(=O)N(C)[C@H]1CC[C@H](CS(=O)(=O)NNC(=O)c2cc(-c3cn(C)cn3)cc(Cl)c2F)CC1` [Compound I-366], the pIC50 against KAT-6A was > 5.00; against KAT-7, > 5.00; at KAT-8, 4.30 to 5.00; against KAT-5, > 5.00.

With `CC(=O)Nc1cccc(S(=O)(=O)NNC(=O)c2cc(-c3cn(C)cn3)cc(Cl)c2F)c1` [Compound I-367], the pIC50 against KAT-6A is > 5.00; on KAT-7, > 5.00; at KAT-8, 4.30 to 5.00; against KAT-5, > 5.00.

As for `COCCOc1cccc(S(=O)(=O)NNC(=O)c2cc(-c3cn(C)cn3)cc(Cl)c2F)c1` [Compound I-368], the pIC50 is > 5.00 against KAT-6A, > 5.00 against KAT-7, 4.30 to 5.00 on KAT-8 and > 5.00 on KAT-5.

Consider `COCCOc1ccc(S(=O)(=O)NNC(=O)c2cc(-c3cn(C)cn3)cc(Cl)c2F)cc1` [Compound I-369], for which the pIC50 against KAT-6A was 4.30 to 5.00; on KAT-7, > 5.00; against KAT-8, 4.30 to 5.00; against KAT-5, > 5.00.

Consider `CC(=O)Nc1ccccc1S(=O)(=O)NNC(=O)c1cc(-c2cn(C)cn2)cc(Cl)c1F` [Compound I-370], for which the pIC50 against KAT-6A was > 5.00; against KAT-7, > 5.00; against KAT-8 it was 4.30 to 5.00; at KAT-5, 4.30 to 5.00.

Regarding `Cn1cnc(-c2cc(Cl)c(F)c(C(=O)NNS(=O)(=O)C[C@H]3CCOC3)c2)c1` [Compound I-371], the pIC50 against KAT-6A was > 5.00; against KAT-7 it was > 5.00; at KAT-8, 4.30 to 5.00; on KAT-5, > 5.00.

In the case of `Cn1cnc(-c2cc(Cl)c(F)c(C(=O)NNS(=O)(=O)C[C@@H]3CCOC3)c2)c1` [Compound I-372], the pIC50 was 4.30 to 5.00 against KAT-6A, > 5.00 against KAT-7, 4.30 to 5.00 against KAT-8 and > 5.00 on KAT-5.

For the compound `COCCc1c(-c2cc(Cl)c(F)c(C(=O)NNS(=O)(=O)CC3CCOCC3)c2)cnn1C` [Compound I-373], the pIC50 on KAT-6A, against KAT-7, against KAT-8 and at KAT-5 was 4.30 to 5.00 throughout.

With `Cn1cnc(-c2cc(Cl)c(F)c(C(=O)NNS(=O)(=O)c3cccnc3OCc3ccccc3)c2)c1` [Compound I-374], the negative-log IC50 (pIC50) against KAT-6A was > 5.00; against KAT-7 it was > 5.00; on KAT-8, 4.30 to 5.00; on KAT-5 it was > 5.00.

Consider `Cn1cnc(-c2cc(Cl)c(F)c(C(=O)NNS(=O)(=O)c3cccc(OCc4ccccc4)n3)c2)c1` [Compound I-375], for which the pIC50 was > 5.00 at KAT-6A, > 5.00 at KAT-7, 4.30 to 5.00 at KAT-8 and > 5.00 against KAT-5.

`CN(C(=O)OC(C)(C)C)c1ccc(S(=O)(=O)NNC(=O)c2cc(-c3cn(C)cn3)cc(Cl)c2F)cc1` [Compound I-377]: the negative-log IC50 (pIC50) on KAT-6A is 4.30 to 5.00; on KAT-7 it was > 5.00; against KAT-8, 4.30 to 5.00; against KAT-5, 4.30 to 5.00.

For the compound `Cn1cnc(-c2cc(Cl)c(F)c(C(=O)NNS(=O)(=O)c3c(F)cccc3F)c2)c1` [Compound I-378], the negative-log IC50 (pIC50) was > 5.00 on KAT-6A, > 5.00 against KAT-7, 4.30 to 5.00 against KAT-8 and > 5.00 at KAT-5.

Take `CC(=O)Nc1ccc(S(=O)(=O)NNC(=O)c2cc(-c3cn(C)cn3)cc(Cl)c2F)cc1` [Compound I-379]: the pIC50 at KAT-6A is 4.30 to 5.00; on KAT-7 it was > 5.00; at KAT-8 it was 4.30 to 5.00; at KAT-5 it was 4.30 to 5.00.

Turning to `CCOc1ccc(S(=O)(=O)NNC(=O)c2cc(-c3cn(C)cn3)cc(Cl)c2F)cc1` [Compound I-380], the pIC50 against KAT-6A is > 5.00; on KAT-7, > 5.00; on KAT-8, 4.30 to 5.00; against KAT-5 it was > 5.00.

In the case of `Cn1cnc(-c2cc(Cl)c(F)c(C(=O)NNS(=O)(=O)c3ccc(=O)[nH]c3)c2)c1` [Compound I-381], the pIC50 was > 5.00 against KAT-6A, > 5.00 on KAT-7, 4.30 to 5.00 against KAT-8 and 4.30 to 5.00 at KAT-5.
